Measurements taken from publication PMC6331789, “Phytochemicals from Ruta graveolens Activate TAS2R Bitter Taste Receptors and TRP Channels Involved in Gustation and Nociception” (Molecules, 2015).

Key:
TAS2R49 [1] = tested on: TAS2R49; parameters: method as in PMID 20022913; conditions: cited from earlier work
TRPM8 [2] = conditions: cited from earlier work
bitter taste receptor = tested on: bitter taste receptor; parameters: method as in PMID 24117141; conditions: cited from earlier work
TAS2R10 [3] = conditions: cited from earlier work; for Selective agonism of TAS2R10 (literature): described in the literature, no reference given
TAS2R10 [4] = biological target: T1, TAS2R10 (Homo sapiens, UniProt Q9NYW0); assay: In vitro calcium imaging assay on cloned TAS2R10 in transfected HEK293T cells; type: cell-based; conditions: concentration/response curve; values with ≥ estimated, curve did not saturate; read-out: EC50 TAS2R10
T1 construct: expressed in transfected cells; host or cells: HEK293T
T1 sequence (Q9NYW0 1-307): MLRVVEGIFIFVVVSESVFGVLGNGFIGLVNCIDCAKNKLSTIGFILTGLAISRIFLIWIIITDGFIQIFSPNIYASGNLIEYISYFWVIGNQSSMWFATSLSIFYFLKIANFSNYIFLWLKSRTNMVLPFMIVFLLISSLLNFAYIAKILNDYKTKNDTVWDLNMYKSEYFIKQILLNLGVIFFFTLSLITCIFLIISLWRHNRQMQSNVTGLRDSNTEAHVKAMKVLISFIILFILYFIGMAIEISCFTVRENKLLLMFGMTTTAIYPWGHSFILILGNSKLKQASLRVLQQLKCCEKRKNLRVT
Excerpt: (§1) Pure phytochemicals were submitted to in vitro assays with a platform of twenty cloned receptors of the bitter taste TAS2R family and four receptors of the TRP family related to the perception of taste and somatosensory sensations. All experiments have been repeated three times, each time with four replicates. […] For simplicity, only those bitter taste receptors having reproducible positive assay, namely TASR10, 14 and 49, are reported (Table 1).
(§2) For those compounds showing activity on one or more receptor(s), the concentration/response curves were plotted and the EC50 calculated.
(§3) For the biological tests, several compounds were purchased as references from different suppliers (Sigma Aldrich, ChromaDex, Irvine, CA, USA, and Tocris Bioscience, Bristol, UK) and dissolved in assay buffer (130 mM NaCl, 5 mM KCl, 1 mM MgCl2, 2 mM CaCl2, 5 mM NaHCO3 and 20 mM HEPES, pH 7.4) or in a mixture of assay buffer and DMSO, never exceeding a final DMSO concentration of 0.5% (v/v) to avoid toxic effects and possible artefacts on transfected cells.
(§4) All human TAS2R and G15Gi1 cDNAs were produced as reported in Bassoli et al. cDNAs for human TRPA1-M5-M8-V1-V4 were cloned into a pcDNA6 expression vector (Invitrogen-Thermo Fisher, Waltham, MA, USA).
(§5) All experiments were performed using HEK293T cells (ATCC).
(§6) For the bitter platform experiments, cells were cultured, transfected and analyzed as previously described.
(§7) For the bitter platform experiments, data analyses were performed as previously described.
(§8) For the calculation of concentration-response curves, responses were calculated as the difference between maximal and minimal relative fluorescence unit (RFU) values in a selected time window (11–60 s) and were normalized to the basal well fluorescence (Time Point 1, before compound injection) in order to compensate for differences in cell density (∆F/F0). All of the experiments have been repeated three times, each time with four replicates. All of the results are averages of at least four replicates. Raw data are available in Supplementary Material, Figures S3–S6.

TAS2R14 [5] = conditions: cited from earlier work
TAS2R14 [6] = biological target: T2, TAS2R14 (Homo sapiens, UniProt Q9NYV8); assay: In vitro calcium imaging assay on cloned TAS2R14 in transfected HEK293T cells; type: cell-based
T2 construct: expressed in transfected cells; host or cells: HEK293T
T2 sequence (Q9NYV8 1-317): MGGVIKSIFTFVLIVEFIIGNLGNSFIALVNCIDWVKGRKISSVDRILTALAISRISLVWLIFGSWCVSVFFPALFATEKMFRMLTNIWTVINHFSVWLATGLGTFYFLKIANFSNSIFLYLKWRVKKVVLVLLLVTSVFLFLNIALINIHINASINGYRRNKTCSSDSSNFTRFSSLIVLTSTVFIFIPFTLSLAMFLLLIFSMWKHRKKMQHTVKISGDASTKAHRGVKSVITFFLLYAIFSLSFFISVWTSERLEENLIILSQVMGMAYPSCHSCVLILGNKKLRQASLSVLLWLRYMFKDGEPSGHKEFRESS
Excerpt: as §1, §2, §3, §4, §5, §6, §7, §8

TRPM5 = biological target: T3, TRPM5 (Homo sapiens, UniProt Q9NZQ8); assay: In vitro membrane potential dye assay (FLIPR) on HEK293T cells stably overexpressing TRPM5; type: cell-based; conditions: concentration/response curve; values with ≥ estimated
T3 construct: expressed in transfected cells
T3 sequence (Q9NZQ8 1-1165): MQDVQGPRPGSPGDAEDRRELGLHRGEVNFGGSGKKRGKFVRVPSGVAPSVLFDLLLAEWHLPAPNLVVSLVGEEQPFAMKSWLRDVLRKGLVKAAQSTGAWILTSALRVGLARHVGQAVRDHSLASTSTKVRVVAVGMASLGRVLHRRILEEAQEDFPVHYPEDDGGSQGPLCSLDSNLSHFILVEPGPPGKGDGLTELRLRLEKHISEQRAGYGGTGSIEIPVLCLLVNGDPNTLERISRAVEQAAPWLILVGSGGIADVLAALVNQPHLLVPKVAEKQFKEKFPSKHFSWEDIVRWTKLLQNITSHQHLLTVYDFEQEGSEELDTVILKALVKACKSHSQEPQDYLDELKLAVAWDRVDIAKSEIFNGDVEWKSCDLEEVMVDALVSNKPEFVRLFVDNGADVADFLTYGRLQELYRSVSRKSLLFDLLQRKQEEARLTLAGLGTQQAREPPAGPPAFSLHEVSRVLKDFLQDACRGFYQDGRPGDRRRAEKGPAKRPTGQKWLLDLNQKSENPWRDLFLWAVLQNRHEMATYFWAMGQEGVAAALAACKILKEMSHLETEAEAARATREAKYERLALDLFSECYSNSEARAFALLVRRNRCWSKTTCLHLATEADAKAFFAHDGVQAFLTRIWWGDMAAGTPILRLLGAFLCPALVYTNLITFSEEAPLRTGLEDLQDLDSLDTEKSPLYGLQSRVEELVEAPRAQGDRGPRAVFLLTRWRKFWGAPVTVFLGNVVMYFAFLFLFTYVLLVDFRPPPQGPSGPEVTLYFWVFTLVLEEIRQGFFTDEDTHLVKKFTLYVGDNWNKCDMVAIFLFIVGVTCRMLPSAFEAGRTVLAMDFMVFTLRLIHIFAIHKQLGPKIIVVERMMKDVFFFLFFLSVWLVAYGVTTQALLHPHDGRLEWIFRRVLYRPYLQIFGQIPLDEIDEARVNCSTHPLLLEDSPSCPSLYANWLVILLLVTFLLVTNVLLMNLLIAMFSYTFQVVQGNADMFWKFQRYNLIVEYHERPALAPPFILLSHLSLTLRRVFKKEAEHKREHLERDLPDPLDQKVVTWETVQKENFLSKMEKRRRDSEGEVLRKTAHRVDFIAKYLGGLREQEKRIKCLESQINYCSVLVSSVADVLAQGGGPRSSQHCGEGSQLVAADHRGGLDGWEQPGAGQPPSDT
Excerpt: as §1, §2, §3, §4, §5
(§9) For TRP platform experiments, cells were cultured in MEM/EBSS medium (ECB2071L EuroClone, Milan, Italy) plus 10% (v/v) fetal bovine serum (FBS) (26400-044 Gibco, Karlsruhe, Germany) and 1% (v/v) Pen/Strep 10K/10K stock (17-602E Lonza, Basel, Switzerland). Stable cell lines were generated overexpressing each TRP channel, and clones were selected with 500 µg/mL of G418 (ant-gn-5 Invivogen, Karlsruhe, Germany). To analyze TRP receptor responses, cells were plated at a concentration of 20,000 cells/well in 384-well plates (GR-4330 Twin Helix srl, Milan, Italy). Cellular responses were measured 24 h after seeding.
(§10) For TRPM5 experiments, cells were loaded 24 h after seeding with a Membrane Potential Dye (R8034 MDC) solution in assay buffer according to the manufacturer’s instructions and incubated at 37 °C for 1 h before acquisition. All experiments were performed using a fluorometric imaging plate reader (FLIPR^TETRA, Molecular Devices equipped with ICCD Camera from Stanford Photonics, INC, (Palo Alto, CA, USA) and kinetics were visualized with Molecular Devices’ Screenworks 3.0 (Sunnyvale, CA, USA).
as §8

TAS2R49 [7] = biological target: T4, TAS2R49 (Homo sapiens, UniProt P59543); assay: In vitro calcium imaging assay on cloned TAS2R49 in transfected HEK293T cells; type: cell-based; conditions: concentration/response curve; read-out: EC50 TAS2R49
T4 construct: expressed in transfected cells; host or cells: HEK293T
T4 sequence (P59543 1-309): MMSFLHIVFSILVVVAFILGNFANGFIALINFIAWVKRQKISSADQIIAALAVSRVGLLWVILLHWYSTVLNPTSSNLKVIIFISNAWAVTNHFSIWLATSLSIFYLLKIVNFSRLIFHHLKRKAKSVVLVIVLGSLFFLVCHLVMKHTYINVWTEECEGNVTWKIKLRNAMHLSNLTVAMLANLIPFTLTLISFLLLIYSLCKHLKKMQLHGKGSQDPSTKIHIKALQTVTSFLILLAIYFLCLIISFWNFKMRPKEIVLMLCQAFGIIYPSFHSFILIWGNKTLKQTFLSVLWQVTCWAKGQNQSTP
Excerpt: as §1, §2, §3, §4, §5, §6, §7, §8

TRPM8 [8] = biological target: T5, TRPM8 (Homo sapiens, UniProt Q7Z2W7); assay: In vitro Fluo8-NW calcium assay (FLIPR) on HEK293T cells stably overexpressing TRPM8; type: cell-based; conditions: concentration/response curve
T5 construct: expressed in transfected cells
Excerpt: as §1, §2, §3, §4, §5, §9
For TRPA1-M8-V1-V4 experiments, a solution of Fluo8-NW calcium-sensitive dye (36316 AAT BioQuest, Sunnyvale, CA, USA) was prepared using the assaybuffer and diluting the kit components 1:2 according to the manufacturer’s instructions. Twenty-four hours after seeding, cells were incubated one hour at RT, loaded with 40 µL of Fluo8-NW solution for each well and incubated again for one hour at RT before data acquisition.
as §10, §8

T5 sequence (Q7Z2W7 whole entry): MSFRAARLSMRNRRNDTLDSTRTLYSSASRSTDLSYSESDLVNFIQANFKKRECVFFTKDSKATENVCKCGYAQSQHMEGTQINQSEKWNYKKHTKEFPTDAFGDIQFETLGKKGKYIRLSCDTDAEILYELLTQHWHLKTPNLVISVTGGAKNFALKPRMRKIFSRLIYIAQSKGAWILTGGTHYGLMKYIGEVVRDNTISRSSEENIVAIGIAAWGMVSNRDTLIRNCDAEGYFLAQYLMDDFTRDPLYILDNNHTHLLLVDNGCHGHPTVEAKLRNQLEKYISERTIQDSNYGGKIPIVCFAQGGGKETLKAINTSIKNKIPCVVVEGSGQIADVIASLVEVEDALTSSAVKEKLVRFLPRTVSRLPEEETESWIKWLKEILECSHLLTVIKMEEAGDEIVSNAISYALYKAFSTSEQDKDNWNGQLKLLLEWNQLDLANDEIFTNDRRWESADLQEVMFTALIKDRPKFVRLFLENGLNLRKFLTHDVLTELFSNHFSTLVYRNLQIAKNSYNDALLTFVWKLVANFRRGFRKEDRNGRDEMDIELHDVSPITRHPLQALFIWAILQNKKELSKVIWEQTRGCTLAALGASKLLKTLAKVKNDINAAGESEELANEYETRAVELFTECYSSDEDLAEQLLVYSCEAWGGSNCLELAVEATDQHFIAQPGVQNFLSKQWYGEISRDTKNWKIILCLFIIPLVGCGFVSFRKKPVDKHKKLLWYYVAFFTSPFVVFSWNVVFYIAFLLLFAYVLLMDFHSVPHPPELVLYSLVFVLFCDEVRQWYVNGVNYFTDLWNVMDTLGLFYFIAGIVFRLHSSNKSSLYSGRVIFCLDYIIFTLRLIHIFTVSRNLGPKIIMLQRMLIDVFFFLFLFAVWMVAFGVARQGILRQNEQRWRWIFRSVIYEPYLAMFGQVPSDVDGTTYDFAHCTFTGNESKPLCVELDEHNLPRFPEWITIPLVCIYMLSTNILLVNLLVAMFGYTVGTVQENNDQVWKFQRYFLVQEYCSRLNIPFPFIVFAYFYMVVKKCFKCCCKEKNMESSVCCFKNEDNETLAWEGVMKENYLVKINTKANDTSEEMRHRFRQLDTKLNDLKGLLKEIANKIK

Which “Agonism of TAS2R49 (literature)” value (TAS2R49 [1]) does the source give for `O=C(O)c1cc(=O)c2c(OCC(O)COc3cccc4oc(C(=O)O)cc(=O)c34)cccc2o1` [cromolyn] here?
The value was “non-selective agonists”.

With `CC[C@H]1CC2CN3CCc4c([nH]c5ccc(OC)cc45)[C@](C(=O)OC)(C2)[C@H]13` (stereo in doubt) [voacangine] as the compound, how does the “TRPM8 inhibition (literature)” value (TRPM8 [2]) read?
Its value is “potent TRPM8 inhibitor”.

For `O=c1cc(-c2ccc(O)c(O)c2)oc2cc(O)cc(O)c12` [luteolin], which “Bitter taste receptor activation of flavonoids (literature)” value (bitter taste receptor) is on record?
Its value is “active”.

With `CC(=O)OC(C)(C)/C=C/C(=O)[C@](C)(O)[C@H]1[C@H](O)C[C@@]2(C)[C@@H]3CC=C4[C@@H](C=C(O)C(=O)C4(C)C)[C@]3(C)C(=O)C[C@]12C` [cucurbitacin E] as the compound, how does the “Selective agonism of TAS2R10 (literature)” value (TAS2R10 [3]) read?
Its value is “selective agonists”.

For `CC[N+](CC)(CC(=O)Nc1c(C)cccc1C)Cc1ccccc1` [Denatonium Benzoate, reference compound], which EC50 (TAS2R10 [4]) is on record?
The EC50 was 8.3 µM.

Which “Selective agonism of TAS2R14 (literature)” value (TAS2R14 [5]; described in the literature, no reference given) does the source give for `COc1ccc2c(c1OC)C(=O)O[C@@H]2[C@H]1c2c(cc3c(c2OC)OCO3)CCN1C` [noscapine] here?
The value was “selective agonist”.

For `COc1cccc2c1cc([N+](=O)[O-])c1c(C(=O)O)cc3c(c12)OCO3` [Aristolochic Acid, reference compound], which EC50 (TAS2R14 [6]) is on record?
The EC50 was 2.3 µM.

With `C[N+](C)(C)CCOC(N)=O` [Carbachol, reference compound] as the compound, how does the EC50 (TRPM5) read?
Its EC50 is 4.3 µM.

With `O=c1c(O)c(-c2ccc(O)c(O)c2)oc2cc(O)cc(O)c12` [quercetin] as the compound, how does the “Bitter taste receptor activation of flavonoids (literature)” value (bitter taste receptor) read?
The value was “still active, but with lower efficacy”.

Which EC50 (TAS2R49 [7]) does the source give for `Cc1nc2sccn2c(=O)c1CCN1CCC(=C(c2ccc(F)cc2)c2ccc(F)cc2)CC1` [Ritanserin, reference compound] here?
The EC50 was 6 µM.

For `CCNC(=O)C1CC(C)CCC1C(C)C` (stereo not drawn) [WS3, reference compound], which EC50 (TRPM8 [8]) is on record?
Its EC50 is 4 µM.

For `OC(CCCN1CCCCC1)(c1ccccc1)c1ccccc1` [diphenidol], which “Agonism of TAS2R49 (literature)” value (TAS2R49 [1]) is on record?
The value was “non-selective agonists”.

With `CC[C@H]1OC(=O)[C@H](C)[C@@H](O[C@H]2C[C@@](C)(OC)[C@@H](O)[C@H](C)O2)[C@H](C)[C@@H](O[C@@H]2O[C@H](C)C[C@H](N(C)C)[C@H]2O)[C@](C)(O)C[C@@H](C)C(=O)[C@H](C)[C@@H](O)[C@]1(C)O` [erythromycin] as the compound, how does the “Selective agonism of TAS2R10 (literature)” value (TAS2R10 [3]) read?
The value was “selective agonists”.

With `O=c1ccc2ccccc2o1` [Coumarin] as the compound, how does the “Agonism of TAS2R14 (literature)” value (TAS2R14 [5]) read?
The value was “known agonist”.

And the “Agonism of TAS2R10 (literature)” value (TAS2R10 [3])?
The value was “known agonist”.
